# Laboratory results published in US10766903B2 (ALMAC DISCOVERY LIMITED, priority 2016, dated 2020).
# Molecular target: USP7 (Homo sapiens (Human), UniProt Q93009)
# Assay: USP7 fluorescence polarisation (FP) biochemical assay, ubiquitin-Lys-TAMRA substrate
# Details: Table 4, biochemical assay; average of at least duplicate experiments; read-out: USP7 IC50
# Procedure, shortened: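 Full-length His6-USP7 (2.5 nM) incubated ± inhibitor (8-point dilutions, 200 to 0.1 μM before addition) in 50 mM HEPES pH 7.2, 150 mM NaCl, 0.5 mM EDTA, 5 mM DTT, 0.05% BSA, 0.05% CHAPS. Ubiquitin-Lys-TAMRA cleavage followed by FP (ex 530/em 575 nm) every 15 min for 1.5 h; normalised to no-compound control.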
# Chain of USP7 (Q93009 whole entry): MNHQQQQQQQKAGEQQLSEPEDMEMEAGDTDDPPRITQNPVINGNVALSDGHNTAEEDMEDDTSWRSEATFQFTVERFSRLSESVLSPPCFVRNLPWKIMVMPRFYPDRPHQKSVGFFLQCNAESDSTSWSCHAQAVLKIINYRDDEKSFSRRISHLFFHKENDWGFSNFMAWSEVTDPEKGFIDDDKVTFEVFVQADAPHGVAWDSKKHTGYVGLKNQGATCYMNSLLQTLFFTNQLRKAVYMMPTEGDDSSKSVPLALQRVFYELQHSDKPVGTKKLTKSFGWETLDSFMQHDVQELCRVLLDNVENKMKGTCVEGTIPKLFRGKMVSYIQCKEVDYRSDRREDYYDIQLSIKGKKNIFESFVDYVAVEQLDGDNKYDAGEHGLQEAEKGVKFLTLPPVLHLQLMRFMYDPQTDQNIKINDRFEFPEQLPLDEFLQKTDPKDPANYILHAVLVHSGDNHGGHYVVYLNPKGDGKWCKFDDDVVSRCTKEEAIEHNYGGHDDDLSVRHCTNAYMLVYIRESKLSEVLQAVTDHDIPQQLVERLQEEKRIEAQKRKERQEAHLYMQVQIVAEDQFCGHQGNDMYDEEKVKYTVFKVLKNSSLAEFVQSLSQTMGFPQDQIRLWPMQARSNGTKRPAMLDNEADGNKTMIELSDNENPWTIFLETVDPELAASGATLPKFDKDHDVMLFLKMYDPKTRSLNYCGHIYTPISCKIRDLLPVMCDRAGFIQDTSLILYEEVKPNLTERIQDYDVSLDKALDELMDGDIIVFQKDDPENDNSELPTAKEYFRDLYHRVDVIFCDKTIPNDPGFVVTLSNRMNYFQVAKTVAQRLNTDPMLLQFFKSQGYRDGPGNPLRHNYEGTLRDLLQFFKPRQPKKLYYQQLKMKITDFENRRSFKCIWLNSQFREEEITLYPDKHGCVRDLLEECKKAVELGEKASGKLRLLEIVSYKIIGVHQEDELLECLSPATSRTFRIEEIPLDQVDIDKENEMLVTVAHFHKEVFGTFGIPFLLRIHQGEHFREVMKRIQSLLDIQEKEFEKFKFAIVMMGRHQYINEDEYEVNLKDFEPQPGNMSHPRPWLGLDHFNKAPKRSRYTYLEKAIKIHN
row,SMILES,IC50 [nM]
1,"C[C@H](CC(=O)N1CCC(O)(Cn2cnc(/C=C/CN3CCCC3)cc2=O)CC1)c1ccccc1 [Example 51, (R,E)-3-((4-Hydroxy-1-(3-phenylbutanoyl)piperidin-4-yl)methyl)-6-(3-(pyrrolidin-1-yl)prop-1-en-1-yl)pyrimidin-4(3H)-one]",1000 to 200000
2,"C[C@H](CC(=O)N1CCC(O)(Cn2cnc(NCCN3CCCCC3)cc2=O)CC1)c1ccccc1 [Example 52, (R)-3-((4-Hydroxy-1-(3-phenylbutanoyl)piperidin-4-yl)methyl)-6-((2-(piperidin-1-yl)ethyl)amino)pyrimidin-4(3H)-one]",< 250
3,"C[C@H](CC(=O)N1CCC(O)(Cn2cnc(/C=C/CN3CC[C@@H](N)C3)cc2=O)CC1)c1ccccc1 [Example 55, 6-((E)-3-((R)-3-Aminopyrrolidin-1-yl)prop-1-en-1-yl)-3-((4-hydroxy-1-((R)-3-phenylbutanoyl)piperidin-4-yl)methyl)pyrimidin-4(3H)-one, Formic Acid]",1000 to 200000
4,"C[C@H](CC(=O)N1CCC(O)(Cn2cnc(/C=C/CN3CC[C@H](N)C3)cc2=O)CC1)c1ccccc1 [Example 56, 6-((E)-3-((S)-3-Aminopyrrolidin-1-yl)prop-1-en-1-yl)-3-((4-hydroxy-1-((R)-3-phenylbutanoyl)piperidin-4-yl)methyl)pyrimidin-4(3H)-one, Formic Acid]",1000 to 200000
5,"C[C@H](CC(=O)N1CCC(O)(Cn2cnc(N[C@@H](Cc3ccccc3)CN3CCCC3)cc2=O)CC1)c1ccccc1 [Example 57, 3-((4-Hydroxy-1-((R)-3-phenylbutanoyl)piperidin-4-yl)methyl)-6-(((S)-1-phenyl-3-(pyrrolidin-1-yl)propan-2-yl)amino)pyrimidin-4(3H)-one, Formic Acid]",1000 to 200000
6,"C[C@H](CC(=O)N1CCC(O)(Cn2cnc(NC[C@@H](C)N3CCCC3)cc2=O)CC1)c1ccccc1 [Example 58, 3-((4-Hydroxy-1-((R)-3-phenylbutanoyl)piperidin-4-yl)methyl)-6-(((R)-2-(pyrrolidin-1-yl)propyl)amino)pyrimidin-4(3H)-one]",< 250
7,"C[C@H](CC(=O)N1CCC(O)(Cn2cnc(NC[C@H](C)N3CCCC3)cc2=O)CC1)c1ccccc1 [Example 59, 3-((4-Hydroxy-1-((R)-3-phenylbutanoyl)piperidin-4-yl)methyl)-6-(((S)-2-(pyrrolidin-1-yl)propyl)amino)pyrimidin-4(3H)-one, Formic Acid]",< 250
8,"C[C@H](CN1CCCC1)Nc1cc(=O)n(CC2(O)CCN(C(=O)C[C@@H](C)c3ccccc3)CC2)cn1 [Example 60, 3-((4-Hydroxy-1-((R)-3-phenylbutanoyl)piperidin-4-yl)methyl)-6-(((R)-1-(pyrrolidin-1-yl)propan-2-yl)amino)pyrimidin-4(3H)-one, Formic Acid]",< 250

# Same assay, conditions: USP7 IC50, Table 4, biochemical assay; average of at least duplicate experiments
row,SMILES,IC50 [nM]
1,"C[C@H](CC(=O)N1CCC(O)(Cn2cnc(-c3cnn(CCN(C)C)c3)cc2=O)CC1)c1ccccc1 [Example 54, (R)-6-(1-(2-(Dimethylamino)ethyl)-1H-pyrazol-4-yl)-3-((4-hydroxy-1-(3-phenylbutanoyl)piperidin-4-yl)methyl)pyrimidin-4(3H)-one, Formic Acid]",250 to 999
2,"C[C@H](CC(=O)N1CCC(O)(Cn2cnc(N[C@@H](C)CN3CCCC3)cc2=O)CC1)c1ccccc1 [Example 61, 3-((4-Hydroxy-1-((R)-3-phenylbutanoyl)piperidin-4-yl)methyl)-6-(((S)-1-(pyrrolidin-1-yl)propan-2-yl)amino)pyrimidin-4(3H)-one, Formic Acid]",250 to 999
3,"C[C@H](CC(=O)N1CCC(O)(Cn2cnc(N3CC[C@H](N(C)C)C3)cc2=O)CC1)c1ccccc1 [Example 62, 6-((S)-3-(Dimethylamino)pyrrolidin-1-yl)-3-((4-hydroxy-1-((R)-3-phenylbutanoyl)piperidin-4-yl)methyl)pyrimidin-4(3H)-one]",250 to 999
